{"source": "patent US20220062240A1", "about": "“METHODS OF TREATING CANCER USING A CLK INHIBITOR” (BioSplice Therapeutics, Inc., priority 2018, published 2022)", "key": {"CLK3": {"molecular_target": "CLK3 (Homo sapiens, UniProt P49761)", "sequence (P49761 whole entry)": "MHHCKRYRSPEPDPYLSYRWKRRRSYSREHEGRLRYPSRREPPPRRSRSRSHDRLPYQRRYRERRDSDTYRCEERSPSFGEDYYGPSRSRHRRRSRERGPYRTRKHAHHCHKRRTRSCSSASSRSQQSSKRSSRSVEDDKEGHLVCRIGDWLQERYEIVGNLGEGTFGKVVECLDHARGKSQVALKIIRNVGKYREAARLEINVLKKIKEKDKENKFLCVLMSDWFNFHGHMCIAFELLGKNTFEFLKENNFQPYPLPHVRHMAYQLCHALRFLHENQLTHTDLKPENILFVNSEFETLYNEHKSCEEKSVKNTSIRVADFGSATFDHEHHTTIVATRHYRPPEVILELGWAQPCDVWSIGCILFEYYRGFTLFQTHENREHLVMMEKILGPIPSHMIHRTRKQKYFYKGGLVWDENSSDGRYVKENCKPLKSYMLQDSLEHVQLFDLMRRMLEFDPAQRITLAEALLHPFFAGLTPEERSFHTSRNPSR", "assay": "CLK3 kinase activity assay (Z-lyte, Ser/Thr 18 peptide)", "procedure": "Each compound was dissolved in DMSO as a 10 mM stock and used to prepare compound source plates.\nThis is a non-radioactive assay using fluorescence resonance energy transfer (FRET) between coumarin and fluorescein to detect kinase activity which is represented as a ratio of coumarin emission/fluorescein emission.\nAll reactions were performed in duplicate. Unphosphorylated (“0% Control”) and phosphorylated (“100% control”) forms of Ser/Thr 18 served as control reactions. Additionally, an 11-point dose-response curve of Staurosporine (1 uM top) was run to serve as a positive compound control.\nAfter incubation, Development Reagent A was diluted in Development Buffer then added to the reaction and allowed to further incubate for one hour at room temperature.\nDose-response curves were generated and inhibitory concentration (IC50) values were calculated using non-linear regression curve fit in the Dotmatics' Studies Software (Bishops Stortford, UK).\nCompounds were acoustically transferred on 1536-well plates (Echo 550, LabCyte) instrument. Kinase, peptide, and ATP reagents from the Z′-LYTE Kinase Assay Kits (Thermo Fisher) were dispensed onto the compound plates using an EL406 liquid dispenser (BioTek). Plates were incubated in the dark at room temperature for 1 hr. Development reagent was added to the plates and then incubated in the dark at room temperature for 1 hr. Fluorescence signal form the plate was then read using an EnVision Multilabel Plate Reader (Perkin Elmer)."}, "BT-549": {"test_system": "BT-549", "assay": "CellTiter-Glo Viability Assay, breast cancer", "type": "cell-based", "settings": "Homo sapiens, 96 h; BT-549, breast cancer, four days; read-out: EC50"}, "HCC1599": {"test_system": "HCC1599", "assay": "CellTiter-Glo Viability Assay, breast cancer", "type": "cell-based", "settings": "Homo sapiens, 96 h; HCC1599, breast cancer, four days; read-out: EC50"}, "T47D": {"test_system": "T47D", "assay": "CellTiter-Glo Viability Assay, breast cancer", "type": "cell-based", "settings": "Homo sapiens, 96 h, breast cancer, four days, read-out: EC50"}, "ZR-75-1": {"test_system": "ZR-75-1", "assay": "CellTiter-Glo Viability Assay, breast cancer", "type": "cell-based", "settings": "Homo sapiens, 96 h; ZR-75-1, breast cancer, four days; read-out: EC50"}, "MCF7": {"test_system": "MCF7", "assay": "CellTiter-Glo Viability Assay, breast cancer", "type": "cell-based", "settings": "Homo sapiens, 96 h; MCF7, breast cancer, four days; read-out: EC50"}, "DU4475": {"test_system": "DU4475", "assay": "CellTiter-Glo Viability Assay, breast cancer", "type": "cell-based", "settings": "Homo sapiens, DU-4475, 96 h; DU4475, breast cancer, four days; read-out: EC50"}, "CAMA1": {"test_system": "CAMA1", "assay": "CellTiter-Glo Viability Assay, breast cancer", "type": "cell-based", "settings": "Homo sapiens, CAMA-1, 96 h; CAMA1, breast cancer, four days; read-out: EC50"}, "MDA-MB-231-Luc": {"test_system": "MDA-MB-231-Luc", "assay": "CellTiter-Glo Viability Assay, breast cancer", "type": "cell-based", "settings": "Homo sapiens, 96 h; MDA-MB-231-Luc, breast cancer, four days; read-out: EC50"}, "[1]": {"test_system": "haematopoietic & lymphoid tumors (13 cell lines)", "assay": "CellTiter-Glo Viability Assay, haematopoietic & lymphoid tumors", "type": "cell-based", "settings": "Homo sapiens, inhibition of cancer cell proliferation"}, "CLK2": {"molecular_target": "T1, CLK2 (Homo sapiens, UniProt P49760)", "T1 construct": "purchased Thermo Fisher (Life Technologies), Z'-LYTE Kinase Assay Kits", "assay": "CLK2 kinase activity assay (Z-lyte, Ser/Thr 6 peptide)", "type": "biochemical", "settings": "recombinant CLK2 kinase, ATP 60 μM; read-out: EC50", "description": "All reactions were performed in duplicate."}, "[2]": {"test_system": "ovarian cancer (4 cell lines)", "assay": "CellTiter-Glo Viability Assay, ovarian cancer", "type": "cell-based", "settings": "Homo sapiens, inhibition of cancer cell proliferation"}, "[3]": {"test_system": "liver cancer (3 cell lines)", "assay": "CellTiter-Glo Viability Assay, liver cancer", "type": "cell-based", "settings": "Homo sapiens, inhibition of cancer cell proliferation"}, "[4]": {"test_system": "lung cancer (4 cell lines)", "assay": "CellTiter-Glo Viability Assay, lung cancer", "type": "cell-based", "settings": "Homo sapiens, inhibition of cancer cell proliferation"}, "[5]": {"test_system": "colorectal cancer (6 cell lines)", "assay": "CellTiter-Glo Viability Assay, colorectal cancer", "type": "cell-based", "settings": "Homo sapiens, inhibition of cancer cell proliferation"}, "[6]": {"test_system": "pancreatic cancer (8 cell lines)", "assay": "CellTiter-Glo Viability Assay, pancreatic cancer", "type": "cell-based", "settings": "Homo sapiens, inhibition of cancer cell proliferation"}, "[7]": {"test_system": "prostate cancer (5 cell lines)", "assay": "CellTiter-Glo Viability Assay, prostate cancer", "type": "cell-based", "settings": "Homo sapiens"}, "all 50 cell lines": {"test_system": "all 50 cell lines", "assay": "CellTiter-Glo Viability Assay, average across all cell lines", "type": "cell-based", "settings": "Homo sapiens; across all 50 cell lines; read-out: average EC50 for inhibition of cancer cell proliferation", "in_short": "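Human cancer cell lines from breast, colorectal, haematopoietic/lymphoid, liver, lung, ovarian, pancreatic and prostate tumours were seeded at 300-3,000 cells/well and exposed to compound in duplicate for four days at 37° C, 5% CO2. Viable cells were measured by ATP luminescence; EC50 values came from dose-response curves.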"}}, "note": "Where two headings read alike, the source gives them in different places.", "data": [{"compound": "CN1CCC(Sc2ccc3cnc(NC(=O)c4ccnc(SC5CCN(C)CC5)c4)cc3c2)CC1", "note": "[Compound 88]", "values": [{"measurement": "EC50", "setting": "CLK3", "value": 21.4, "unit": "nM"}, {"measurement": "EC50", "setting": "BT-549", "value": 1030, "unit": "nM"}, {"measurement": "EC50", "setting": "HCC1599", "value": 2300, "unit": "nM"}, {"measurement": "EC50", "setting": "T47D", "value": 7190, "unit": "nM"}, {"measurement": "EC50", "setting": "ZR-75-1", "value": 1440, "unit": "nM"}, {"measurement": "EC50", "setting": "MCF7", "value": 1900, "unit": "nM"}, {"measurement": "EC50", "setting": "DU4475", "value": 540, "unit": "nM"}, {"measurement": "EC50", "setting": "CAMA1", "value": 1410, "unit": "nM"}, {"measurement": "EC50", "setting": "MDA-MB-231-Luc", "value": 1220, "unit": "nM"}, {"measurement": "EC50", "setting": "[1]; DND41, DND-41 cell line, read-out: Haematopoietic & Lymphoid tumors, EC50 (μM) DND-41", "value": 1, "unit": "µM"}, {"measurement": "EC50", "setting": "[1]; MV4-11, MV-4-11 cell line, read-out: Haematopoietic & Lymphoid tumors, EC50 (μM) MV-4-11", "value": 0.204, "unit": "µM"}, {"measurement": "EC50", "setting": "[1]; Rec1, REC-1 cell line, read-out: Haematopoietic & Lymphoid tumors, EC50 (μM) REC-1", "value": 0.192, "unit": "µM"}, {"measurement": "EC50", "setting": "[1]; SU-DHL-4, SUDHL4 cell line, read-out: Haematopoietic & Lymphoid tumors, EC50 (μM) SUDHL4", "value": 0.527, "unit": "µM"}, {"measurement": "EC50", "setting": "[1]; HL-60 cell line, read-out: Haematopoietic & Lymphoid tumors, EC50 (μM) HL-60", "value": 1.28, "unit": "µM"}, {"measurement": "EC50", "setting": "[1]; JM1 cell line, read-out: Haematopoietic & Lymphoid tumors, EC50 (μM) JM1", "value": 0.158, "unit": "µM"}, {"measurement": "EC50", "setting": "[1]; JURKAT, Clone E6-1 cell line, read-out: Haematopoietic & Lymphoid tumors, EC50 (μM) JURKAT, Clone E6-1", "value": 1.19, "unit": "µM"}, {"measurement": "EC50", "setting": "[1]; JeKo-1 cell line, read-out: Haematopoietic & Lymphoid tumors, EC50 (μM) JeKo-1", "value": 0.32, "unit": "µM"}, {"measurement": "EC50", "setting": "[1]; KASUMI-1 cell line, read-out: Haematopoietic & Lymphoid tumors, EC50 (μM) KASUMI-1", "value": 0.517, "unit": "µM"}, {"measurement": "EC50", "setting": "[1]; Loucy cell line, read-out: Haematopoietic & Lymphoid tumors, EC50 (μM) Loucy", "value": 0.614, "unit": "µM"}, {"measurement": "EC50", "setting": "[1]; MOLT-4 cell line, read-out: Haematopoietic & Lymphoid tumors, EC50 (μM) MOLT-4", "value": 1.45, "unit": "µM"}, {"measurement": "EC50", "setting": "[1]; TF-1 cell line, read-out: Haematopoietic & Lymphoid tumors, EC50 (μM) TF-1", "value": 2.67, "unit": "µM"}, {"measurement": "EC50", "setting": "[1]; TOLEDO cell line, read-out: Haematopoietic & Lymphoid tumors, EC50 (μM) TOLEDO", "value": 0.274, "unit": "µM"}, {"measurement": "EC50", "setting": "CLK2", "value": 4.5, "unit": "nM"}, {"measurement": "EC50", "setting": "[2]; PA-1, PA1 cell line, read-out: Ovarian cancer, EC50 (μM) PA1", "value": 1.05, "unit": "µM"}, {"measurement": "EC50", "setting": "[2]; TOV112D, TOV-112D cell line, read-out: Ovarian cancer, EC50 (μM) TOV-112D", "value": 0.873, "unit": "µM"}, {"measurement": "EC50", "setting": "[2]; OV-90 cell line, read-out: Ovarian cancer, EC50 (μM) OV-90", "value": 1.88, "unit": "µM"}, {"measurement": "EC50", "setting": "[2]; OVCAR-3 cell line, read-out: Ovarian cancer, EC50 (μM) OVCAR-3", "value": 0.569, "unit": "µM"}, {"measurement": "EC50", "setting": "[3]; SNU-398, SNU398 cell line, read-out: Liver cancer, EC50 SNU398", "value": 167, "unit": "nM"}, {"measurement": "EC50", "setting": "[3]; HEPG2 cell line, read-out: Liver cancer, EC50 HEPG2", "value": 6400, "unit": "nM"}, {"measurement": "EC50", "setting": "[3]; PLC/PRF/5 cell line, read-out: Liver cancer, EC50 PLC/PRF/5", "value": 1560, "unit": "nM"}, {"measurement": "EC50", "setting": "[4]; A-427, A427 cell line, read-out: Lung cancer, EC50 (μM) A427", "value": 0.841, "unit": "µM"}, {"measurement": "EC50", "setting": "[4]; HCC78, HCC-78 cell line, read-out: Lung cancer, EC50 (μM) HCC-78", "value": 1.29, "unit": "µM"}, {"measurement": "EC50", "setting": "[4]; NCI-H460 cell line, read-out: Lung cancer, EC50 (μM) NCI-H460", "value": 0.697, "unit": "µM"}, {"measurement": "EC50", "setting": "[4]; NCI-H522 cell line, read-out: Lung cancer, EC50 (μM) NCI-H522", "value": 0.33, "unit": "µM"}, {"measurement": "EC50", "setting": "[5]; HCT-116, HCT116 cell line, read-out: Colorectal cancer, EC50 (μM) HCT116", "value": 0.497, "unit": "µM"}, {"measurement": "EC50", "setting": "[5]; HT-29, HT29 cell line, read-out: Colorectal cancer, EC50 (μM) HT29", "value": 0.574, "unit": "µM"}, {"measurement": "EC50", "setting": "[5]; SW-620, SW620 cell line, read-out: Colorectal cancer, EC50 (μM) SW620", "value": 0.465, "unit": "µM"}, {"measurement": "EC50", "setting": "[5]; DLD-1 cell line, read-out: Colorectal cancer, EC50 (μM) DLD-1", "value": 0.677, "unit": "µM"}, {"measurement": "EC50", "setting": "[5]; SW48 cell line, read-out: Colorectal cancer, EC50 (μM) SW48", "value": 0.153, "unit": "µM"}, {"measurement": "EC50", "setting": "[5]; SW480 cell line, read-out: Colorectal cancer, EC50 (μM) SW480", "value": 0.796, "unit": "µM"}, {"measurement": "EC50", "setting": "[6]; BXPC-3, BxPC3 cell line, read-out: Pancreatic cancer, EC50 BxPC3", "value": 1230, "unit": "nM"}, {"measurement": "EC50", "setting": "[6]; CAPAN-1, Capan1 cell line, read-out: Pancreatic cancer, EC50 Capan1", "value": 1030, "unit": "nM"}, {"measurement": "EC50", "setting": "[6]; Capan-2, Capan2 cell line, read-out: Pancreatic cancer, EC50 Capan2", "value": 937, "unit": "nM"}, {"measurement": "EC50", "setting": "[6]; MIA PaCa-2 cell line, read-out: Pancreatic cancer, EC50 MIA PaCa-2", "value": 296, "unit": "nM"}, {"measurement": "EC50", "setting": "[6]; PANC 05.04 cell line, read-out: Pancreatic cancer, EC50 PANC 05.04", "value": 2110, "unit": "nM"}, {"measurement": "EC50", "setting": "[6]; PANC-1 cell line, read-out: Pancreatic cancer, EC50 PANC-1", "value": 808, "unit": "nM"}, {"measurement": "EC50", "setting": "[6]; UPAFII cell line, read-out: Pancreatic cancer, EC50 UPAFII", "value": 547, "unit": "nM"}, {"measurement": "EC50", "setting": "[7]; DU-145, read-out: Prostate cancer EC50 Du-145", "value": 772, "unit": "nM"}, {"measurement": "EC50", "setting": "[7]; PC-3, PC3 cell line, inhibition of cancer cell proliferation, read-out: Prostate cancer EC50 PC3", "value": 907, "unit": "nM"}, {"measurement": "EC50", "setting": "[7]; 22Rv1 cell line, inhibition of cancer cell proliferation, read-out: Prostate cancer EC50 22Rv1", "value": 532, "unit": "nM"}, {"measurement": "EC50", "setting": "[7]; LNCap clone FGC cell line, inhibition of cancer cell proliferation, read-out: Prostate cancer EC50 LNCap clone FGC", "value": 1190, "unit": "nM"}, {"measurement": "EC50", "setting": "[7]; VCaP (Sigma) cell line, inhibition of cancer cell proliferation, read-out: Prostate cancer EC50 VCaP (Sigma)", "value": 728, "unit": "nM"}, {"measurement": "EC50", "setting": "all 50 cell lines", "value": 1150, "unit": "nM"}]}]}
